# Values of other authors as cited in publication PMC8557155 (Annals of Nuclear Medicine, 2021).
# Details: rat model, lysine-protected rats; cited from earlier work
smiles,measurement,value
NCCCC[C@H](N)C(=O)O [lysine],Reduction of 177Lu quantified in the kidney,approximately 45%
